Assay results reported in the supplement of paper PMC10627819.

How the values were obtained:
S. aureus DSM 20231 [1] = assay: fitness (endpoint OD595 vs no drug) (fraction); higher = more growth
Outline: (§1)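 At 37 °C, bacteria in TSB, LB Lennox or CY were grown in 384-well plates from a starting OD595 of 0.01. OD595 was measured every 30 min for 14 h, with the first reading used as background. Fitness is the optical density at the switch to stationary phase as a fraction of the robust mean of no-drug control wells, capped at 1.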

S. aureus DSM 20231 [2] = assay: Bliss interaction score (quartile over a dose matrix) (fitness difference); higher = more antagonism (negative = synergy)
Outline: (§2)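 The Bliss score takes observed fitness and subtracts the expected fitness, calculated as a product of single-drug fitness values. Those single-drug values were inferred from the combination data. Fitness is OD595 at entry into stationary phase divided by the plate's robust no-drug mean, capped at 1, and the score is summarised by quartiles across technical, biological and donor/recipient replicates.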

S. aureus Newman = assay: as above
Outline: as §2

S. pneumoniae D39V [3] = assay: as above
Outline: as §2

B. subtilis 168 [4] = assay: as above
Outline: as §2

S. pneumoniae D39V [5] = assay: fitness (endpoint OD595 vs no drug) (fraction); higher = more growth
Outline: as §1

B. subtilis 168 [6] = assay: as above
Outline: as §1
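Throughout, for Bliss interaction score (quartile over a dose matrix): first quartile when negative (synergy) and third quartile when positive (antagonism).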
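Throughout, for fitness (endpoint OD595 vs no drug): OD595 on entry to stationary phase over no-drug wells; at most 1.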

CO/N=C(\C(=O)N[C@@H]1C(=O)N2C(C(=O)[O-])=C(C[N+]3(C)CCCC3)CS[C@H]12)c1csc(N)n1 [Cefepime] + COc1cc(Cc2cnc(N)nc2N)cc(OC)c1OC [Trimethoprim]
fitness, S. aureus DSM 20231 [1]
Conditions | partner 0.125 µg/mL | partner 0.25 µg/mL | partner 0.5 µg/mL | partner 1 µg/mL
first compound 0.125 µg/mL | 0.629 | 0.556 | 0.272 | 0.0708
first compound 0.25 µg/mL | 0.631 | 0.573 | – | 0.0608
first compound 0.5 µg/mL | 0.679 | 0.612 | – | 0.0509

Conditions | Bliss interaction score
B. subtilis 168 [4] | 0.0732
S. aureus DSM 20231 [2] | 0.0714
S. aureus Newman | 0.0778
S. pneumoniae D39V [3] | 0.255

CCCCCCCCCC(=O)N[C@@H](Cc1c[nH]c2ccccc12)C(=O)N[C@H](CC(N)=O)C(=O)N[C@@H](CC(=O)O)C(=O)N[C@@H]1C(=O)NCC(=O)N[C@@H](CCCN)C(=O)N[C@@H](CC(=O)O)C(=O)N[C@H](C)C(=O)N[C@@H](CC(=O)O)C(=O)NCC(=O)N[C@H](CO)C(=O)N[C@@H]([C@H](C)CC(=O)O)C(=O)N[C@@H](CC(=O)c2ccccc2N)C(=O)O[C@@H]1C [Daptomycin] + CC(=O)NC[C@H]1CN(c2ccc(N3CCOCC3)c(F)c2)C(=O)O1 [Linezolid]
one replicate
Conditions | fitness
B. subtilis 168 [6], first compound 0.125 µg/mL, partner 0.0625 µg/mL | 0.944
B. subtilis 168 [6], first compound 0.25 µg/mL, partner 0.0625 µg/mL | 0.932
B. subtilis 168 [6], first compound 0.5 µg/mL, partner 0.0625 µg/mL | 0.802
B. subtilis 168 [6], first compound 1 µg/mL, partner 0.125 µg/mL | 0.6
B. subtilis 168 [6], first compound 1 µg/mL, partner 0.25 µg/mL | 0.279
B. subtilis 168 [6], first compound 1 µg/mL, partner 0.5 µg/mL | 0.0175
S. aureus DSM 20231 [1], first compound 0.125 µg/mL, partner 0.125 µg/mL | 0.729
S. aureus DSM 20231 [1], first compound 0.125 µg/mL, partner 1 µg/mL | 0.0431
S. aureus DSM 20231 [1], first compound 0.25 µg/mL, partner 0.125 µg/mL | 0.869
S. aureus DSM 20231 [1], first compound 0.25 µg/mL, partner 1 µg/mL | 0.0221
S. aureus DSM 20231 [1], first compound 0.5 µg/mL, partner 1 µg/mL | 0.0214

fitness
Conditions | first compound 0.125 µg/mL | first compound 0.25 µg/mL | first compound 0.5 µg/mL | first compound 1 µg/mL | first compound 2 µg/mL | first compound 4 µg/mL
B. subtilis 168 [6], partner 0.125 µg/mL | 0.604 | 0.605 | 0.508 | – | – | –
B. subtilis 168 [6], partner 0.25 µg/mL | 0.0809 | – | – | – | – | –
B. subtilis 168 [6], partner 0.5 µg/mL | 0.0486 | 0.0567 | 0.0348 | – | – | –
S. aureus DSM 20231 [1], partner 0.125 µg/mL | – | – | 0.844 | 0.928 | 0.951 | –
S. aureus DSM 20231 [1], partner 0.25 µg/mL | 0.629 | 0.595 | 0.651 | 0.823 | 0.775 | –
S. aureus DSM 20231 [1], partner 0.5 µg/mL | 0.19 | 0.177 | 0.257 | 0.319 | 0.335 | –
S. pneumoniae D39V [5], partner 0.105 µg/mL | – | – | – | 0.741 | 0.786 | 0.77
S. pneumoniae D39V [5], partner 0.2 µg/mL | – | – | – | 0.409 | 0.413 | 0.412
S. pneumoniae D39V [5], partner 0.21 µg/mL | – | – | – | 0.651 | 0.689 | 0.689
S. pneumoniae D39V [5], partner 0.4 µg/mL | – | – | – | 0.207 | 0.22 | 0.205
S. pneumoniae D39V [5], partner 0.42 µg/mL | – | – | – | 0.476 | 0.447 | 0.554
S. pneumoniae D39V [5], partner 0.8 µg/mL | – | – | – | 0.0731 | 0.0931 | 0.0732

Conditions | Bliss interaction score
B. subtilis 168 [4] | 0.0563
S. aureus DSM 20231 [2] | 0.0745
S. aureus Newman | 0.0604
S. pneumoniae D39V [3] | -0.141

CCCCCCCCCC(=O)N[C@@H](Cc1c[nH]c2ccccc12)C(=O)N[C@H](CC(N)=O)C(=O)N[C@@H](CC(=O)O)C(=O)N[C@@H]1C(=O)NCC(=O)N[C@@H](CCCN)C(=O)N[C@@H](CC(=O)O)C(=O)N[C@H](C)C(=O)N[C@@H](CC(=O)O)C(=O)NCC(=O)N[C@H](CO)C(=O)N[C@@H]([C@H](C)CC(=O)O)C(=O)N[C@@H](CC(=O)c2ccccc2N)C(=O)O[C@@H]1C [Daptomycin] + CCC[C@@H]1C[C@@H](C(=O)N[C@@H]([C@H]2O[C@H](SC)[C@H](O)[C@@H](O)[C@H]2O)[C@@H](C)O)N(C)C1 [Lincomycin]
fitness
Conditions | partner 0.1 µg/mL | partner 0.2 µg/mL | partner 0.215 µg/mL | partner 0.4 µg/mL | partner 0.43 µg/mL | partner 0.8 µg/mL | partner 0.86 µg/mL
B. subtilis 168 [6], first compound 0.125 µg/mL | 0.865 | 0.904 | – | 0.863 | – | – | –
B. subtilis 168 [6], first compound 0.25 µg/mL | 0.869 | 0.901 | – | 0.848 | – | – | –
B. subtilis 168 [6], first compound 0.5 µg/mL | 0.937 | 0.905 | – | – | – | – | –
S. aureus DSM 20231 [1], first compound 0.5 µg/mL | 0.962 | 0.821 | – | – | – | – | –
S. aureus DSM 20231 [1], first compound 1 µg/mL | 0.911 | 0.806 | – | – | – | – | –
S. aureus DSM 20231 [1], first compound 2 µg/mL | 0.937 | 0.817 | – | – | – | – | –
S. pneumoniae D39V [5], first compound 1 µg/mL | – | 0.409 | 0.764 | 0.22 | 0.697 | 0.053 | 0.396
S. pneumoniae D39V [5], first compound 2 µg/mL | – | 0.405 | 0.764 | 0.241 | 0.72 | 0.0442 | 0.408
S. pneumoniae D39V [5], first compound 4 µg/mL | – | 0.366 | 0.802 | 0.204 | 0.702 | 0.0329 | 0.411

fitness, B. subtilis 168 [6], one replicate
Conditions | first compound 0.25 µg/mL | first compound 0.5 µg/mL | first compound 1 µg/mL
partner 0.4 µg/mL | – | – | 0.686
partner 0.8 µg/mL | 0.851 | 0.788 | 0.647
partner 1.6 µg/mL | 0.797 | 0.81 | 0.657

Conditions | Bliss interaction score
B. subtilis 168 [4] | -0.0659
S. aureus DSM 20231 [2] | 0.099
S. aureus Newman | 0.0732
S. pneumoniae D39V [3] | -0.133

CCCCCCCCCC(=O)N[C@@H](Cc1c[nH]c2ccccc12)C(=O)N[C@H](CC(N)=O)C(=O)N[C@@H](CC(=O)O)C(=O)N[C@@H]1C(=O)NCC(=O)N[C@@H](CCCN)C(=O)N[C@@H](CC(=O)O)C(=O)N[C@H](C)C(=O)N[C@@H](CC(=O)O)C(=O)NCC(=O)N[C@H](CO)C(=O)N[C@@H]([C@H](C)CC(=O)O)C(=O)N[C@@H](CC(=O)c2ccccc2N)C(=O)O[C@@H]1C [Daptomycin] + COc1cc(Cc2cnc(N)nc2N)cc(OC)c1OC [Trimethoprim]
fitness
Conditions | first compound 0.125 µg/mL | first compound 0.25 µg/mL | first compound 0.5 µg/mL | first compound 1 µg/mL | first compound 2 µg/mL
B. subtilis 168 [6], partner 0.125 µg/mL | – | 0.692 | 0.659 | – | –
B. subtilis 168 [6], partner 0.25 µg/mL | – | – | 0.552 | – | –
B. subtilis 168 [6], partner 0.5 µg/mL | 0.454 | – | 0.446 | – | –
S. aureus DSM 20231 [1], partner 0.125 µg/mL | – | – | 0.788 | 0.745 | 0.839
S. aureus DSM 20231 [1], partner 0.25 µg/mL | 0.573 | 0.553 | 0.645 | 0.657 | 0.695
S. aureus DSM 20231 [1], partner 0.5 µg/mL | 0.128 | 0.0962 | – | 0.304 | 0.37
S. aureus DSM 20231 [1], partner 1 µg/mL | 0.0396 | 0.0212 | 0.0174 | – | –

fitness, B. subtilis 168 [6], one replicate
Conditions | partner 0.1 µg/mL | partner 0.125 µg/mL | partner 0.2 µg/mL | partner 0.25 µg/mL | partner 0.4 µg/mL | partner 0.5 µg/mL | partner 1 µg/mL | partner 2 µg/mL
first compound 0.125 µg/mL | 0.908 | 0.711 | 0.755 | – | 0.533 | – | 0.328 | 0.251
first compound 0.25 µg/mL | ≥ 1 | – | 0.756 | – | 0.555 | – | 0.226 | 0.161
first compound 0.5 µg/mL | 0.918 | – | 0.657 | – | 0.512 | – | 0.144 | 0.149
first compound 1 µg/mL | – | 0.35 | – | 0.22 | – | 0.115 | – | –

Conditions | Bliss interaction score
B. subtilis 168 [4] | 0.0723
S. aureus DSM 20231 [2] | -0.0443
S. aureus Newman | 0.0713
S. pneumoniae D39V [3] | -0.192
